From US11458189B2, “Cytoprotective drugs” (BALMES TRANSPLANTATION, priority 2017, dated 2022)
Starred links: 1 amine or outer side, 2 acyl side, 3 side chain; linkers in the order of their positions; H or OH if unused. Positions of bridges follow the written chain, without caps; N, C: chain ends. Non-standard residues stand in square brackets, D forms with d. Residues, ends and D or L forms follow the SMILES beside them. *: point of attachment. hTyr(3S-OH,4S-OH,3'-OSO3H) = N[C@H](C(=O)O)[C@H](O)[C@@H](O)c1ccc(O)c(OS(=O)(=O)O)c1; Orn(4R-OH,5R-OH) = O=C([C@H](C[C@@H](O)[C@@H](O)N[*:3])N[*:1])[*:2]; Pro(3S-OH,4S-Me) = C[C@H]1CN[C@H](C(=O)O)[C@H]1O; X1 = CCCCCOc1ccc(-c2cc(-c3ccc(C(=O)*)cc3)no2)cc1; Gln(3R-OH) = NC(=O)C[C@@H](O)[C@H](N)C(=O)O; Hyp = O=C(O)[C@@H]1C[C@@H](O)CN1

System: Human Renal Proximal Tubular Epithelial Cells (HRPTEpiC)
Assay: Oxygen and glucose deprivation followed by replenishment, cell survival (calcein AM), HRPTEpiC
Format: cell-based
Protocol: Anidulafungin and micafungin were tested on Human Renal Glomerular Endothelial Cells (HRGEC, Innoprot P10665), on Human Renal Proximal Tubular Epithelial Cells (HRPTEpiC, Innoprot P10662), on Human Astrocytes (HA, caltag SC-1800), on Human Cardiac Microvascular Endothelial Cells (HCMEC, Caltag SC-6000), on Human Hepatic Sinusoidal Endothelial Cells (HHSEC, Caltag SC-5000), on Rat Primary Kidney Glomerular Endothelial cells (Cellbiologics, RN-6014G) and on Bovine Brain Microvascular Endothelial Cells (BBMEC, Caltag SC-B100).
In a first phase, these isolated, purified and cryopreserved cells are thawed and multiplied according to the supplier's recommendations in T75 or T175 flasks pre-coated with 2 μg of fibronectin/[…] (CORNING) for HRGEC, HCMEC, HHSEC and BBMEC, or 2 μg poly-L-lysin/cm^2 (Caltag SC-0403) for HRPTEpiC and HA, or 15 mL/flask 175 cm^2 gelatin-based solution (Cellbiologics) in the presence of endothelial cell supplemented growth medium ECM (P60104, INNOPROT, Caltag, SC-1001) for HRGEC, HCMEC, HHSEC, RPKGEC or BBMEC, or astrocyte cell supplemented growth medium AM (Caltag SC-1801) for HA or epithelial cell supplemented growth medium EpiCM (P60106, INNOPROT) for HRPTEpiC, at 37° C. under 5% CO2 and saturated humidity until their confluency. They are then harvested by trypsinization according to the method described by the supplier for exactly 5 minutes and then reseeded in new flasks a maximum of three times.
To carry out the oxygen and glucose deprivation test followed by their replenishment, the cells will be seeded in 96-well black plates with transparent flat bottom (GREINER). Once a sufficient number of cells has been obtained to allow seeding of 2000 to 15000 cells per well of 96-well plates depending on the cell type, the cells are seeded in these 96-well plates previously coated with an extracellular matrix as listed above for the flasks. The cells are cultured for 5 to 8 days according to the cell type, in the presence of the same growth medium as in the flask as described above except for HRGEC and HRPTEpiC for which DMEM (DUTSCHER) with 1 g/L of supplemented glucose is used, at 37° C. under 5% CO2 and saturated humidity to obtain confluency.
On the first day of oxygen and glucose deprivation, (5th, 6th, 7th or 8th day of culture), the culture conditions are drastically changed. The medium of all plates is removed and replaced by DMEM (DUTSCHER) medium without glucose and supplemented only with 1% penicillin-streptomycin (DUTSCHER). Anidulafungin or micafungin dissolved in dimethyl sulfoxide (DMSO) is then added to each well at the desired concentration, resulting in a maximum of 1% DMSO, and the plates are placed under hypoxia at <1% 02 and 5% CO2 at 37° C. for 24 hours of culture. Each compound was tested in a concentration range.
After 24 hours, the growth medium is changed and replaced by a richer medium, DMEM (DUTSCHER) at 1 g/L glucose and 2% FBS (INNOPROT) and 1% penicillin-streptomycin (DUTSCHER). These media will have been pre-equilibrated at 37° C. in advance. The cells are then returned to culture at 37° C. under 20% 02 and 5% CO2 for 22h.
After 22 hours of reoxygenation, the potential protective effect of anidulafungin or micafungin is measured by a cell viability test using calcein AM (CORNING), which is a dye substrate. The calcein AM can easily cross the cell membrane of the viable cells. The AM ester groups mask the part of the molecule that chelates calcium. Once inside the cells, the (non-fluorescent) calcein AM is hydrolyzed to (fluorescent) calcein by endogenous esterases. The resulting calcein molecule binds to calcium inside the cell and remains trapped inside the cell. These molecules emit strong green fluorescence when subjected to […] of a particular wavelength (495 nm). Since dead cells lack esterase activity, only living cells are labelled.
This cell viability test is performed in two steps. […]

## CCCCCOc1ccc(-c2cc(-c3ccc(C(=O)N[C@H]4C[C@@H](O)[C@@H](O)NC(=O)[C@@H]5[C@@H](O)[C@@H](C)CN5C(=O)[C@H]([C@H](O)CC(N)=O)NC(=O)[C@H]([C@H](O)[C@@H](O)c5ccc(O)c(OS(=O)(=O)O)c5)NC(=O)[C@@H]5C[C@@H](O)CN5C(=O)[C@H]([C@@H](C)O)NC4=O)cc3)no2)cc1 [Micafungin, {5-[(1S,2S)-2-[(3S,6S,9S,11R,15S,18S,20R,21R,24S,25S,26S)-3-[(1R)-2-carbamoyl-1-hydroxyethyl]-11,20,21,25-tetrahydroxy-15-[(1R)-1-hydroxyethyl]-26-methyl-2,5,8,14,17,23-hexaoxo-18-[(4-{5-[4-(pentyloxy)phenyl]-1,2-oxazol-3-yl}benzene)amido]-1,4,7,13,16,22-hexaazatricyclo[22.3.0.0]heptacosan-6-yl]-1,2-dihydroxyethyl]-2-hydroxyphenyl}oxidanesulfonic acid] (X1-[Orn(4R-OH,5R-OH)]T[Hyp][hTyr(3S-OH,4S-OH,3'-OSO3H)][Gln(3R-OH)][Pro(3S-OH,4S-Me)]; lactam 1-C)
[Micafungin] log μM −4.39794
  Globalfluo assay 1: 17038910 arbitrary units
  Globalfluo assay 2: 16914110 arbitrary units
  Globalfluo assay 3: 17516930 arbitrary units
  Mean globalfluo: 17156650 arbitrary units
  Survival rate (%): 58%
[Micafungin] log μM −4.69897
  Globalfluo assay 1: 18487560 arbitrary units
  Globalfluo assay 2: 18879740 arbitrary units
  Globalfluo assay 3: 18282240 arbitrary units
  Mean globalfluo: 18549847 arbitrary units
  Survival rate (%): 63%
[Micafungin] log μM −4.79588
  Globalfluo assay 1: 17777390 arbitrary units
  Globalfluo assay 2: 17681470 arbitrary units
  Globalfluo assay 3: 18724080 arbitrary units
  Mean globalfluo: 18060980 arbitrary units
  Survival rate (%): 61%
[Micafungin] log μM −4.853872
  Globalfluo assay 1: 17634840 arbitrary units
  Globalfluo assay 2: 17920170 arbitrary units
  Globalfluo assay 3: 19831830 arbitrary units
  Mean globalfluo: 18462280 arbitrary units
  Survival rate (%): 63%
[Micafungin] log μM −4.920819
  Globalfluo assay 1: 18495680 arbitrary units
  Globalfluo assay 2: 17954570 arbitrary units
  Globalfluo assay 3: 19304800 arbitrary units
  Mean globalfluo: 18585017 arbitrary units
  Survival rate (%): 64%
[Micafungin] log μM −5
  Globalfluo assay 1: 19091330 arbitrary units
  Globalfluo assay 2: 21245570 arbitrary units
  Globalfluo assay 3: 20574080 arbitrary units
  Mean globalfluo: 20303660 arbitrary units
  Survival rate (%): 71%
[Micafungin] log μM −5.30103
  Globalfluo assay 1: 17265090 arbitrary units
  Globalfluo assay 2: 20693980 arbitrary units
  Globalfluo assay 3: 20348120 arbitrary units
  Mean globalfluo: 19435730 arbitrary units
  Survival rate (%): 67%
[Micafungin] log μM −5.69897
  Globalfluo assay 1: 5296218 arbitrary units
  Globalfluo assay 2: 13559640 arbitrary units
  Globalfluo assay 3: 14370600 arbitrary units
  Mean globalfluo: 11075486 arbitrary units
  Survival rate (%): 32%
[Micafungin] log μM −5.823909
  Globalfluo assay 1: 4696579 arbitrary units
  Globalfluo assay 2: 8382404 arbitrary units
  Globalfluo assay 3: 9632039 arbitrary units
  Mean globalfluo: 7570341 arbitrary units
  Survival rate (%): 18%
[Micafungin] log μM −6
  Globalfluo assay 1: 5307945 arbitrary units
  Globalfluo assay 2: 5614600 arbitrary units
  Globalfluo assay 3: 8026091 arbitrary units
  Mean globalfluo: 6316212 arbitrary units
  Survival rate (%): 13%
[Micafungin] log μM −6.09691
  Globalfluo assay 1: 6028392 arbitrary units
  Globalfluo assay 2: 5998920 arbitrary units
  Globalfluo assay 3: 5793032 arbitrary units
  Mean globalfluo: 5940115 arbitrary units
  Survival rate (%): 11%
[Micafungin] log μM −6.221849
  Globalfluo assay 1: 4745212 arbitrary units
  Globalfluo assay 2: 4694631 arbitrary units
  Globalfluo assay 3: 5790310 arbitrary units
  Mean globalfluo: 5076718 arbitrary units
  Survival rate (%): 8%
[Micafungin] log μM −6.39794
  Globalfluo assay 1: 4361975 arbitrary units
  Globalfluo assay 2: 4442347 arbitrary units
  Globalfluo assay 3: 5176795 arbitrary units
  Mean globalfluo: 4660372 arbitrary units
  Survival rate (%): 6%
[Micafungin] log μM −6.69897
  Globalfluo assay 1: 4839699 arbitrary units
  Globalfluo assay 2: 4005588 arbitrary units
  Globalfluo assay 3: 4289833 arbitrary units
  Mean globalfluo: 4378373 arbitrary units
  Survival rate (%): 5%
[Micafungin] log μM −7
  Globalfluo assay 1: 3602590 arbitrary units
  Globalfluo assay 2: 3530551 arbitrary units
  Globalfluo assay 3: 3665638 arbitrary units
  Mean globalfluo: 3599593 arbitrary units
  Survival rate (%): 2%
[Micafungin] log μM −8
  Globalfluo assay 1: 3781795 arbitrary units
  Globalfluo assay 2: 3409519 arbitrary units
  Globalfluo assay 3: 3718559 arbitrary units
  Mean globalfluo: 3636624 arbitrary units
  Survival rate (%): 2%
